Square brackets hold non-standard residues; d marks the D form. Ava = NCCCCC(=O)O; βAla = NCCC(=O)O
What was measured:
mice or rat models = assay: Summary of cargo delivery to targeted organ (Table 1); format: in vivo; conditions: cargoes and route (IV, IM, SQ, NB) per peptide as listed in Table 1
From the text: Table 1 lists a summary of cell-penetrating peptides that have been proven successful in delivering various cargo molecules to on or more targeted organ (e.g., by intravenous (IV), intramuscular (IM), or subcutaneous (SQ) administration, or intratraccheal instillation or nebulization (NB)) in mice or rat models.

mice = assay: In vivo delivery of Luciferase mRNA by targeted ADGN-peptide variants, intravenous (Example 9); conditions: 5 μg Luc mRNA
293T cells = assay: Cellular delivery of Luciferase mRNA, luciferase expression at 72 hrs; format: cell-based; conditions: 0.25 μg Luc mRNA; for luciferase expression: absence of serum or heparan sulfate treatment; for reduction of efficiency / luciferase expression after serum treatment: complexes incubated 3 hrs in 25% serum prior transfection
Protocol: FIGS. 1A-1C show luciferase expression in 293T cells treated with ADGN-peptide/mRNA complexes. 293T cells cultured in 48 well plates were transfected with ADGN-peptide nanoparticles. ADGN-100, ADGN-106, ADGN-100RI, ADGN-106RI, ADGN-100 Stearyl, ADGN-Hydro1, ADGN-Hydro2, ADGN-Hydro3, ADGN-Hydro4, ADGN-Hydro5, ADGN-Hydro6 and ADGN-peptide/ADGN-100PEG 10% nanoparticles containing 0.25 μg mRNA were formed in sterile water, diluted in sterile water containing 5% Sucrose and filtered with 0.45 μm PES filters. ADGN/mRNA complexes were incubated for 3 hrs in the presence of either 25% serum or heparan sulfate prior transfection. Luciferase expression was monitored 72 hours post transfection and results were reported as RLU (luminescence):mg of protein.
Complex formation with mRNA. The following protocols were used for the transfection of 2-5 106 Cells or Cells at confluency of about 70-80% cultured in 24 well plates. ADGN peptide/mRNA particles were prepared at a 20:1 molar ratio of ADGN-Peptide/mRNA. using (0.25 μg) mRNA. Luc mRNA (0.25 μg) was diluted in 20 μl of sterile water (GIBCO) at room temperature. 5 μl Final Peptide Solution was added to obtain a total volume of 20 μl. The volume was adjusted to 50 μl with sterile water and was mixed gently with vortex 1 min low speed and incubated 30 min at room temperature. Then the volume was made up to 100 μl by adding sterile water containing 5% sucrose, and the solution was mixed gently with vortex 1 min low speed and incubate 5 min at 37° C. and then was proceeded to cell transfection.
Transfection protocol. Protocol is reported for 24 well plate format. Cells were cultured in Dulbecco's Modified Eagle's Medium (DMEM), supplemented with 2 mM glutamine, 1% antibiotics (streptomycin 10,000 μg/mL, penicillin, 10,000 IU/mL) and 10% (w/v) foetal calf serum (FCS), at 37° C. in a humidified atmosphere containing 5% CO2. 24 well plates seeded with 150,000 cells the day prior to transfection were grown to 50-60% confluence and set up to be at about 70% confluences at the time of transfection. Before transfection, cells were washed twice with DMEM. Cells were then overlaid with 0.1 ml of ADGN-peptide/cargo complex solution containing 0.25 μg mRNA, 0.15 μg plasmid DNA or 10-25 nM siRNA, mixed gently, and incubated for 10 min at 37° C. 0.2 mL of fresh DMEM, were added and cells were incubated for 20 min at 37° C. 1 mL of complete DMEM containing 15% FCS were then added in order to reach a final FCS concentration of 10%, without removing the overlay of ADGN-peptide/cargo complexes. Cells were returned to the incubator (37° C., 5% CO2) and 72 hrs post transfection.
ADGN-peptides were evaluated for cellular delivery of Luciferase mRNA in 293T cells. A single dose of mRNA of 0.25 μg was evaluated. Luc mRNA (0.25 μg) in sterile water (GIBCO) were mixed with ADGN-100, ADGN-100RI, ADGN-106, ADGN-106RI, ADGN-100 Stearyl, ADGN-Hydro1, ADGN-Hydro2, ADGN-Hydro5 and ADGN-Hydro6. ADGN-peptide/mRNA complexes were filtered with 0.45 μm PES filter. In order to evaluate the stability of the ADGN/mRNA complexes in high serum and cell culture conditions, the complexes were incubated for 3 hrs in the presence of either 25% serum or heparan sulfate prior transfection, then 293T cells were transfected and Luciferase expression was monitored at 72 hrs.
ADGN-106 peptides containing YIGSR targeting sequence were evaluated for cellular delivery of Luciferase mRNA in 293T cells. A single dose of mRNA of 0.25 μg was evaluated. Luc mRNA (0.25 μg) in sterile water (GIBCO) were mixed with ADGN-106 and ADGN-106Hydro variant. ADGN-peptide/mRNA complexes were filtered with 0.45 μm PES filter. The ADGN-106/mRNA complexes were incubated for 3 hrs in the presence of 25% serum prior transfection, then 293T cells were transfected and Luciferase expression was monitored at 72 hrs.

Substance | Targeted Organ (mice or rat models) | target delivery and expression of mRNA (tissues) (mice) | also measured
AC-ALWRA(GalNac)LWRLWRSLWRLLWKA-NH2 [ADGN-106GALNAC] | Liver | mRNA accumulation in the liver | 
Ac-ASSLNIA-Ava-KWWERWWREWPRKRR-NH2 [ADGN-103C] |  | negligible luciferase expression | 
Ac-CARPAR-WRSAGWRWRLWRVRSWSR-NH2 (Ac-CARPARWRSAGWRWRLWRVRSWSR-NH2) [ADGN-101] | Heart/Lung | heart and muscles | increase of luciferase expression / efficiency in the lung relative to parent peptide (mice): 6 fold
Ac-CKRAV-RWWLRWASRWFSRWAWWR-NH2 [ADGN-109b] |  | the lung, heart and muscles | 
Ac-CKTRRVP-WRALWRLWRSLWRLLWKA-NH2 (Ac-CKTRRVPWRALWRLWRSLWRLLWKA-NH2) [ADGN-106TD] | Muscle/Heart | heart and muscles | 
Ac-KSYDTYAAETR-RWASRWFSRWAWWR-NH2 [ADGN-109D] |  | the brain and lymphnode and at lower level in liver and kidney | 
Ac-KSYDTY[Ava]ALRWLRWASRWFSRWAWR-NH2 [ADGN-109] |  | the brain and lymphnode and at lower level in liver and kidney | 
Ac-KWRSA(GalNac)LWRWRLWRVRSWSR-NH2 (Ac-KWRSA[GalNAc]LWRWRLWRVRSWSR-NH2; not fully specified; printed as Ac-KWRSA(GalNac)LWRWRLWRVRSWSR-NH2) [ADGN-100GALNAC] | Liver | mRNA accumulation in the liver | 
Ac-LSSRLDA-Ava-KWWERWWREWPRKRR [ADGN-104] |  | heart and muscles and at lower level in the liver | 
Ac-SYTSSTM-Ava-KWWERWWREWPRKRR [ADGN-105] |  | the brain and at lower level in liver, lung and lymphnode | 
Ac-SYTSSTM-Ava-βALWRALWRLWRSLWRLLWKA-NH2 (Ac-SYTSSTM[Ava][βAla]LWRALWRLWRSLWRLLWKA-NH2; SMILES CSCC[C@H](NC(=O)[C@@H](NC(=O)[C@H](CO)NC(=O)[C@H](CO)NC(=O)[C@@H](NC(=O)[C@H](Cc1ccc(O)cc1)NC(=O)[C@H](CO)NC(C)=O)[C@@H](C)O)[C@@H](C)O)C(=O)NCCCCC(=O)NCCC(=O)N[C@@H](CC(C)C)C(=O)N[C@@H](Cc1c[nH]c2ccccc12)C(=O)N[C@@H](CCCNC(=N)N)C(=O)N[C@@H](C)C(=O)N[C@@H](CC(C)C)C(=O)N[C@@H](Cc1c[nH]c2ccccc12)C(=O)N[C@@H](CCCNC(=N)N)C(=O)N[C@@H](CC(C)C)C(=O)N[C@@H](Cc1c[nH]c2ccccc12)C(=O)N[C@@H](CCCNC(=N)N)C(=O)N[C@@H](CO)C(=O)N[C@@H](CC(C)C)C(=O)N[C@@H](Cc1c[nH]c2ccccc12)C(=O)N[C@@H](CCCNC(=N)N)C(=O)N[C@@H](CC(C)C)C(=O)N[C@@H](CC(C)C)C(=O)N[C@@H](Cc1c[nH]c2ccccc12)C(=O)N[C@@H](CCCCN)C(=O)N[C@@H](C)C(N)=O) [ADGN-106TB] | Brain/Liver | the brain | 
Ac-TGNYKALHPDHNG-WRSALRWRLWRWSR-NH2 [ADGN-102] | Brain/Lung | the brain | increase of luciferase expression / efficiency in the lung relative to parent peptide (mice): 3 fold
Ac-THRPPNWSPVWP-RALWRLWRSLWRLRWKA-NH2 (Ac-THRPPNWSPVWPRALWRLWRSLWRLRWKA-NH2) [ADGN-106TC] | Brain | the brain | 
Ac-YIGSR-Ahx-ALWRALWRLWRSLWRLLWKA-NH2 [ADGN-106-Hydro-8] |  |  | luciferase expression (293T cells): high level of luciferase expression; reduction of efficiency / luciferase expression after serum treatment (293T cells): 17%; increase of mRNA expression / efficiency in the liver relative to ADGN-106 or ADGN-100 (mice; liver): 2 folds; increase of efficiency in the muscle relative to ADGN-106 (mice; muscle): 5 folds
Ac-YIGSR-Ahx-KWRSALWRWRLWRVRSWSR-NH2 [ADGN-100-Hydro-8] | Tumor/Lung |  | increase of efficiency in the kidney relative to ADGN-100 (mice; kidney): 4 folds; increase of luciferase expression / efficiency in the lung relative to parent peptide (mice): 22 fold
Ac-YIGSR-Ava(CH2)2-ALWRALWRLWRSLWRLLWKA-NH2 [ADGN-106-Hydro-3] | Tumor/Muscle |  | luciferase expression (293T cells): high level of luciferase expression; reduction of efficiency / luciferase expression after serum treatment (293T cells): 32%

From patent US12357695B2, “Peptides and nanoparticles for intracellular delivery of molecules” (AADIGEN, LLC, priority 2019, dated 2025)
